# Results taken from patent publication US20160039767A1, “PYRAZOLE DERIVATIVES AS PRMT1 INHIBITORS AND USES THEREOF” (EPIZYME, INC., priority 2013, published 2016).
# Like-named read-outs stand apart in the source and are kept apart here.
# Assays:
# [1] = system: RKO cells; test: RKO Methylation Assay (In Cell Western for mono-methyl arginine and DNA content); assay type: cell-based; conditions: Homo sapiens
# Excerpt: RKO adherent cells were purchased from ATCC (American Type Culture Collection), Manassas, Va., USA. DMEM/Glutamax medium, penicillin-streptomycin, heat inactivated fetal bovine serum, 0.05% trypsin and D-PBS were purchased from Life Technologies, Grand Island, N.Y., USA. Odyssey blocking buffer, 800CW goat anti-rabbit IgG (H+L) antibody, and Licor Odyssey infrared scanner were purchased from Licor Biosciences, Lincoln, Nebr., USA. Mono-methyl arginine antibody was purchased from Cell Signaling Technology, Danvers, Mass., USA. Methanol was purchased from VWR, Franklin, Mass., USA. 10% Tween 20 was purchased from KPL, Inc., Gaithersburg, Md., USA. DRAQ5 was purchased from Biostatus Limited, Leicestershire, UK.
# RKO adherent cells were maintained in growth medium (DMEM/Glutamax medium supplemented with 10% v/v heat inactivated fetal bovine serum and 100 units/mL penicillin-streptomycin) and cultured at 37° C. under 5% CO2.
# Cell Treatment, in Cell Western (ICW) for Detection of Mono-Methyl Arginine and DNA Content.
# Compound (100 nL) from a 96-well source plate was added directly to 384 well cell plate. Plates were incubated at 37° C., 5% CO2 for 72 hours. After three days of incubation, plates were brought to room temperature outside of the incubator for ten minutes and blotted on paper towels to remove cell media. 50 μL of ice cold 100% methanol was added directly to each well and incubated for 30 min at room temperature. After 30 min, plates were transferred to a Biotek EL406 plate washer and washed 2 times with 100 μL per well of wash buffer (1×PBS). Next 60 μL per well of Odyssey blocking buffer (Odyssey Buffer with 0.1% Tween 20 (v/v)) were added to each plate and incubated 1 hour at room temperature. Blocking buffer was removed and 20 μL per well of primary antibody was added (mono-methyl arginine diluted 1:200 in Odyssey buffer with 0.1% Tween 20 (v/v)) and plates were incubated overnight (16 hours) at 4° C. Plates were washed 5 times with 100 µL per well of wash buffer. Next 20 μL per well of secondary antibody was added (1:200 800CW goat anti-rabbit IgG (H+L) antibody, 1:1000 DRAQ5 (Biostatus limited) in Odyssey buffer with 0.1% Tween 20 (v/v)) and incubated for 1 hour at room temperature. The plates were washed 5 times with 100 μL per well wash buffer then 2 times with 100 μL per well of water. Plates were allowed to dry at room temperature then imaged on the Licor Odyssey machine which measures integrated intensity at 700 nm and 800 nm wavelengths. Both 700 and 800 channels were scanned.
# First, the ratio for each well was determined by:
# Each plate included fourteen control wells of DMSO only treatment (minimum activation) as well as fourteen control wells for maximum activation treated with 20 μM of a reference compound. The average of the ratio values for each control type was calculated and used to determine the percent activation for each test well in the plate. Reference compound was serially diluted three-fold in DMSO for a total of nine test concentrations, beginning at 20 μM. Percent activation was determined and EC30 curves were generated using triplicate wells per concentration of compound.
# [2] = target: T1, PRMT1 (Homo sapiens, UniProt Q99873); test: PRMT1 Biochemical Assay (3H-SAM Flashplate, histone H4 peptide substrate); conditions: Biochemical IC50 (Numerical, μM) PRMT1, single experiment or average of multiple experiments, Table 2a
# T1 construct: GST-tagged PRMT1; made in house; host or cells: High Five insect cells (baculovirus, pFastBacI)
# T1 sequence (Q99873 with tags, fused parts or gaps): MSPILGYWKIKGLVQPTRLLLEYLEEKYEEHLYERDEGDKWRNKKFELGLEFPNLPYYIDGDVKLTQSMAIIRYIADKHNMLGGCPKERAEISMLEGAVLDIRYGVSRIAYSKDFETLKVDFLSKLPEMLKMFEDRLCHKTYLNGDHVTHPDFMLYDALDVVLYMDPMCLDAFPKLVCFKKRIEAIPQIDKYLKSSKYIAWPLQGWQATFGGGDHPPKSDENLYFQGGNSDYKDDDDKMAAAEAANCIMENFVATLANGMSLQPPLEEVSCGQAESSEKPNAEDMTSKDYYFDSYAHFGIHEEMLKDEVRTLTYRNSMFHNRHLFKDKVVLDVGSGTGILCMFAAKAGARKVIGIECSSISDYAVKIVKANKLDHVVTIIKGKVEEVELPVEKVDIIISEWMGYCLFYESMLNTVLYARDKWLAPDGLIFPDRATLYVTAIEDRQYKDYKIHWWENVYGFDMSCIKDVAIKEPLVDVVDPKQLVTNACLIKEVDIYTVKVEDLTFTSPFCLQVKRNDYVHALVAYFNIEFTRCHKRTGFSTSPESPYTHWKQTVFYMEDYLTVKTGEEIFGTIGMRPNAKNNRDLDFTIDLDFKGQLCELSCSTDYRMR
# Excerpt: S-adenosylmethionine (SAM), S-adenosylhomocysteine (SAH), bicine, Tween20, dimethylsulfoxide (DMSO), bovine skin gelatin (BSG), and Tris(2-carboxyethyl)phosphine hydrochloride solution (TCEP) were purchased from Sigma-Aldrich at the highest level of purity possible. ^3H-SAM was purchase from American Radiolabeled Chemicals with a specific activity of 80 Ci/mmol. 384-well streptavidin Flashplates were purchased from PerkinElmer.
# Recombinant baculovirus were generated according to Bac-to-Bac kit instructions (Life Technologies). Protein over-expression was accomplished by infecting exponentially growing High Five insect cell culture at 1.5×10^6 cell/ml with 1:100 ratio of virus. Infections were carried out at 27° C. for 48 hours, harvested by centrifugation, and stored at −80° C. for purification.
# GST-tagged PRMT1 was eluted with 50 mM Tris, 2 mM glutathione, pH 7.8, dialysed in buffer A and concentrated to 1 mg/mL.
# General Procedure for PRMT1 Enzyme Assays on Peptide Substrates.
# The assays were all performed in a buffer consisting of 20 mM Bicine (pH=7.6), 1 mM TCEP, 0.005% BSG, and 0.002% Tween 20, prepared on the day of use. […] DMSO (1 ul) was added to Columns 11, 12, 23, 24, rows A-H for the maximum signal control and 1 ul of SAH, a known product and inhibitor of PRMT1, was added to columns 11, 12, 23, 24, rows I-P for the minimum signal control. A cocktail (40 ul) containing the PRMT1 enzyme was added by Multidrop Combi (Thermo-Fisher). The compounds were allowed to incubate with PRMT1 for 30 min at room temperature, then a cocktail (10 ul) containing SAM and peptide was added to initiate the reaction (final volume=51 ul). […] The assays were stopped by the addition of non-radiolabeled SAM (10 ul) to a final concentration of 300 uM, which dilutes the ^3H-SAM to a level where its incorporation into the peptide substrate is no longer detectable. […] The plates were then read in a PerkinElmer TopCount plate reader to measure the quantity of ^3H-labeled peptide bound to the Flashplate surface, measured as disintegrations per minute (dpm) or alternatively, referred to as counts per minute (cpm).
# Where dpm=disintegrations per minute, cmpd=signal in assay well, and min and max are the respective minimum and maximum signal controls.
# Where top and bottom are the normally allowed to float, but may be fixed at 100 or 0 respectively in a 3-parameter fit. The Hill Coefficient normally allowed to float but may also be fixed at 1 in a 3-parameter fit. Y is the % inhibition and X is the compound concentration.
# [3] = RKO cells, 72 hours, mono-methyl arginine, class symbols, Table 3, read-out: In Cell Western data EC30
# [4] = RKO cells, 72 hours, mono-methyl arginine, single experiment or average of multiple experiments, Table 3a, read-out: In Cell Western data (Numerical, μM) EC30
# [5] = RKO, 72 h, read-out: In Cell Western data (Numerical, μM) EC30
# [6] = RKO, 72 h, read-out: In Cell Western data EC30
SMILES,IC50 [2] [µM],other results
CCCOc1ccc(-c2c[nH]nc2CN(C)CCNC)cc1C(F)(F)F [Compound 28],0.00659,"EC30 [1, 3]: < 3 µM; EC30 [1, 4]: 1.1 µM"
CC(C)CCOc1cc(-c2n[nH]cc2CN(C)CCN)cc(C(F)(F)F)c1Cl [Compound 40],0.152,
CNCCN(C)Cc1c[nH]nc1-c1cc(OCCc2ccccc2)cc(C(F)(F)F)c1 [Compound 42],,"EC30 [1, 5]: 2.7 µM; EC30 [1, 6]: < 3 µM"
CNCCN(C)Cc1c[nH]nc1-c1ccc(OCCC(C)C)c(C(F)(F)F)c1 [Compound 9],,"EC30 [1, 5]: 1.77 µM; EC30 [1, 6]: < 3 µM"
CNCCN(C)Cc1n[nH]cc1-c1cc(OCCOC)cc(C(F)(F)F)c1 [Compound 30],0.109,"EC30 [1, 3]: 3.01 to 12 µM; EC30 [1, 4]: 13.1 µM"
CNCCN(C)Cc1n[nH]cc1-c1ccc(OCCCOC)c(C(F)(F)F)c1 [Compound 20],0.0553,"EC30 [1, 3]: < 3 µM; EC30 [1, 4]: 2.04 µM"
COCCOc1cc(-c2n[nH]cc2CN(C)CCN)cc(C(F)(F)F)c1Cl [Compound 56],0.194,
CN(CCN)Cc1c[nH]nc1-c1ccc(F)c(C(F)(F)F)c1 [Compound 4],0.0572,
CNCCN(C)Cc1n[nH]cc1-c1cc(OCCCOC)cc(C(F)(F)F)c1 [Compound 27],0.139,
CN(CCN)Cc1n[nH]cc1-c1ccc(Oc2ccccc2)c(C(F)(F)F)c1 [Compound 26],0.00917,
CNCCN(C)Cc1c[nH]nc1-c1cc(OCCc2ccccc2OC)cc(C(F)(F)F)c1 [Compound 50],0.0138,"EC30 [1, 3]: 3.01 to 12 µM; EC30 [1, 4]: 4.37 µM"
CNCCN(C)Cc1c[nH]nc1-c1cc(C)c(OCC2CCOCC2)c(C(F)(F)F)c1 [Compound 65],0.0471,"EC30 [1, 5]: 1.45 µM; EC30 [1, 6]: < 3 µM"
CNCCN(C)Cc1c[nH]nc1-c1cccc(C(F)(F)F)c1 [Compound 1],0.123,
CN(CCN)Cc1c[nH]nc1-c1ccc(Cl)c(C(F)(F)F)c1 [Compound 3],0.0232,
CNCCN(C)Cc1c[nH]nc1-c1cc(OCCOC)c(Cl)c(C(F)(F)F)c1 [Compound 55],0.163,
CNCCN(C)Cc1n[nH]cc1-c1cc(Cl)c(OC(C)C)c(C(F)(F)F)c1 [Compound 33],0.0441,
CCCOc1cc(-c2c[nH]nc2CN(C)CCNC)cc(C(F)(F)F)c1 [Compound 31],0.17,
CNCCN(C)Cc1c[nH]nc1-c1cc(OCC2CCCC2)cc(C(F)(F)F)c1 [Compound 45],0.0103,
CNCCN(C)Cc1c[nH]nc1-c1cc(CCC(C)C)cc(C(F)(F)F)c1 [Compound 62],0.0136,
CNCCN(C)Cc1n[nH]cc1-c1cc(OCCC(C)C)cc(C(F)(F)F)c1 [Compound 22],0.0189,
CNCCN(C)Cc1c[nH]nc1-c1cc(OC2CCCCC2)cc(C(F)(F)F)c1 [Compound 39],0.0259,
CNCCN(C)Cc1c[nH]nc1-c1cc(OCCCOC)c(Cl)c(C(F)(F)F)c1 [Compound 57],0.0318,
